Among the data in patent US12624044B2, “SMARCA degraders and uses thereof” (Kymera Therapeutics, Inc., priority 2019, dated 2026) are Dmax and DC50 values, retold here.

The Dmax is the largest share of the target that was removed. Read a low Dmax as shallow degradation. For orientation: DC50 means the concentration giving 50% degradation.

The assay concerns the target SMARCA2 (Homo sapiens, UniProt P51531). The assay is described as follows: MSD SMARCA2 degradation in NCI-H1299 cell line (24 h). Format: cell-based. Details: HC: NCI-H1299 cells treated with DMSO; host or cells: NCI-H1299. The note with it: for Dmax: NCI-H1299, NCI-H1299 cells; for DC50: NCI-H1299 cells, read-out: SMARCA2 MSD H1299 degradation 24 h: External Abs-DC50. The gist of the method:
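SMARCA2 measured by MSD electrochemiluminescence (primary 0.3 ug/ml, secondary 1 ug/ml) on lysates from NCI-H1299 cells exposed to compounds for 24 h across nine 3-fold dilutions. Signal scaled from A2780 cells (no SMARCA2) to DMSO-treated H1299 controls, and maximal degradation after 24 h reported in letter categories.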

SMARCA2, sequence (P51531 whole entry): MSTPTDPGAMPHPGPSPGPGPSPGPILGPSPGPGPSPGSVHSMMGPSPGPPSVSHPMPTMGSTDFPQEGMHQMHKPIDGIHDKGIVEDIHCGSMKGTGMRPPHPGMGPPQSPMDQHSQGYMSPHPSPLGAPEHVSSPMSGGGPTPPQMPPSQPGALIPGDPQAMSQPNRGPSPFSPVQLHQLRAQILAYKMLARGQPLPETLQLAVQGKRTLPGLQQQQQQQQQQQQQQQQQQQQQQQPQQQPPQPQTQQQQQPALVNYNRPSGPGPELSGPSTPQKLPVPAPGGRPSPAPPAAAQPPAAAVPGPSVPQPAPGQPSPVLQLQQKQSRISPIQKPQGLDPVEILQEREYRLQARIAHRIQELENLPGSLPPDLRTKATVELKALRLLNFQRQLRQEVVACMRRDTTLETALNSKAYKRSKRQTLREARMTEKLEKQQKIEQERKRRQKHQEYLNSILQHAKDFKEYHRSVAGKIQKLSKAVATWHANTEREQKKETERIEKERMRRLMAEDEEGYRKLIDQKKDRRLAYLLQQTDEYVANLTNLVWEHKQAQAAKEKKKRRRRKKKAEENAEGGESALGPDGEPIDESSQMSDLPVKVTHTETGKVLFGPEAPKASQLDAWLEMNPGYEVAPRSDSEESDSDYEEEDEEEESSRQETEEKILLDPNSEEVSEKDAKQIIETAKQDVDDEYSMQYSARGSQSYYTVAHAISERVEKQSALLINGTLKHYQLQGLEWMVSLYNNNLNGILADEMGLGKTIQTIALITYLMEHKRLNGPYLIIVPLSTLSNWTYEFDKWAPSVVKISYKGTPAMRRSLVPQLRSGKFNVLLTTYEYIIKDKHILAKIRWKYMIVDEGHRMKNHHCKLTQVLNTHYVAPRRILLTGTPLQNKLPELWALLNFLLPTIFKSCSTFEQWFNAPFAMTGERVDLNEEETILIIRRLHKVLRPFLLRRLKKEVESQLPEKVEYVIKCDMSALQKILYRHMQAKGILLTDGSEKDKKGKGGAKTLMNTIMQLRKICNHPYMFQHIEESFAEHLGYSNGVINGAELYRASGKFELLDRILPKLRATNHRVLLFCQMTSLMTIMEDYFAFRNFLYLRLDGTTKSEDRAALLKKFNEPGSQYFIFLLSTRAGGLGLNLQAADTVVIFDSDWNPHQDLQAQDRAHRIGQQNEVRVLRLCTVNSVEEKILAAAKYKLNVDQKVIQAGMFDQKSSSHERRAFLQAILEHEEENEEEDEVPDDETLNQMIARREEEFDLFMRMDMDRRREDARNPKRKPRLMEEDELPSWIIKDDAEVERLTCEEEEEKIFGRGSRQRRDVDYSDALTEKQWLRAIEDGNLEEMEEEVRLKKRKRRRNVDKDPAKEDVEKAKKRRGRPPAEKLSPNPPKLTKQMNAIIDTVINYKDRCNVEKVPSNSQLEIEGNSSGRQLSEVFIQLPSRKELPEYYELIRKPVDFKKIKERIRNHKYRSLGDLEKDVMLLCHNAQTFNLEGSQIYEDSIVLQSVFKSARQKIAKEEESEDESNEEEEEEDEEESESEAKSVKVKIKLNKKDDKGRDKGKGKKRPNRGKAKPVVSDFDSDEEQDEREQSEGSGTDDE

As to `Cn1c(=O)n(C2CCC(=O)NC2=O)c2ccc(CCCCCCOc3ccc(CN4CCN(c5cc(-c6ccccc6O)nnc5N)CC4)cc3)cc21` (centres unmarked) [I-86], the Dmax was under 50% and the DC50 is over 1000 nM.

For `Cn1c(=O)n(C2CCC(=O)NC2=O)c2ccc(CCCCCOc3cccc(CN4CCN(c5cc(-c6ccccc6O)nnc5N)CC4)c3)cc21` (centres unmarked) [I-102], the Dmax is under 50% and the DC50 was over 1000 nM. In the same order, the values of `Cn1c(=O)n(C2CCC(=O)NC2=O)c2cccc(CCCOCCCN3CCN(Cc4ccc(-c5cc(-c6ccccc6O)nnc5N)cc4)CC3)c21` (centres unmarked) [I-140] are 70 to 90% and under 100 nM. Regarding `O=C1CCC(N2C(=O)c3cccc(OCc4cn(Cc5cccc(N6C[C@H]7C[C@@H]6CN7/C=C/C(=O)c6ccccc6O)n5)nn4)c3C2=O)C(=O)N1` (some centres unmarked) [I-34], the DC50 is over 1000 nM. For the molecule `Cn1c(=O)n(C2CCC(=O)NC2=O)c2cccc(C#CCCCCCCc3cn(Cc4cccc(N5C[C@H]6C[C@@H]5CN6/C=C/C(=O)c5ccccc5O)n4)nn3)c21` (some centres unmarked) [I-68], the maximal degradation (Dmax) was under 50% and the 50% degradation concentration (DC50) was over 1000 nM.

For `Cn1c(=O)n(C2CCC(=O)NC2=O)c2ccc(CCCCCCCCCN3CCC(Cn4cc(-c5cc(-c6ccccc6O)nnc5N)cn4)CC3)cc21` (centres unmarked) [I-148], the Dmax was over 90% and the 50% degradation concentration (DC50) is under 100 nM. For the molecule `Cn1c(=O)n(C2CCC(=O)NC2=O)c2ccc(CCCN3CCCC(n4cc(-c5cc(-c6ccccc6O)nnc5N)cn4)C3)cc21` (centres unmarked) [I-178], the maximal degradation (Dmax) is 70 to 90% and the DC50 is under 100 nM.

As for `Cn1c(=O)n(C2CCC(=O)NC2=O)c2ccc(CCCCCN3CCC[C@@H](Cn4cc(-c5cc(-c6ccccc6O)nnc5N)cn4)C3)cc21` (stereo partly drawn) [I-193, 3-[5-[5-[(3R)-3-[[4-[3-amino-6-(2-hydroxyphenyl)pyridazin-4-yl]pyrazol-1-yl]methyl]-1-piperidyl]pentyl]-3-methyl-2-oxo-benzimidazol-1-yl]piperidine-2,6-dione], the maximal degradation (Dmax) was in the range of 50 to 70% and the DC50 was 501 to 1000 nM.

As to `Cn1c(=O)n(C2CCC(=O)NC2=O)c2cccc(C#CCCc3cn(Cc4cccc(N5C[C@H]6C[C@@H]5CN6/C=C/C(=O)c5ccccc5O)n4)nn3)c21` (some centres unmarked) [I-64], the Dmax was 70 to 90% and the 50% degradation concentration (DC50) was over 1000 nM. For `Cn1c(=O)n(C2CCC(=O)NC2=O)c2cccc(CCCCCCc3cn(Cc4cccc(N5C[C@H]6C[C@@H]5CN6/C=C/C(=O)c5ccccc5O)n4)nn3)c21` (some centres unmarked) [I-51], the greatest degradation seen (Dmax) was under 50% and the DC50 was over 1000 nM. For the molecule `O=C(CCCCCCCCOc1ccc(N2C[C@H]3C[C@@H]2CN3/C=C/C(=O)c2ccccc2O)nc1)NCCOCCOCCOCCOCCOCCNc1cccc2c1C(=O)N(C1CCC(=O)NC1=O)C2=O` (some centres unmarked) [I-3], the DC50 is over 1000 nM. Take `O=C1CCC(N2C(=O)c3cccc(OCCOCCCc4cn(Cc5cccc(N6C[C@H]7C[C@@H]6CN7/C=C/C(=O)c6ccccc6O)n5)nn4)c3C2=O)C(=O)N1` (some centres unmarked) [I-40]: the 50% degradation concentration (DC50) is over 1000 nM. In the case of `CN[C@@H](C)C(=O)N[C@H](C(=O)N1Cc2cc(OCCOCCOCCOCCOCCOCCNC(=O)CCCCCCCCOc3ccnc(N4C[C@H]5C[C@@H]4CN5/C=C/C(=O)c4ccccc4O)c3)ccc2C[C@H]1C(=O)N[C@@H]1CCCc2ccccc21)C(C)(C)C` [I-202], the half-maximal degradation concentration (DC50) was over 1000 nM.

For the molecule `CC(c1ccc(C(=O)NCCOCCOCCNc2cccc3c2C(=O)N(C2CCC(=O)NC2=O)C3=O)cc1)n1cc(-c2cc(-c3ccccc3O)nnc2N)cn1` (centres unmarked) [I-15], the DC50 was over 1000 nM. Still for that read-out and setting: as for `Cn1c(=O)n(C2CCC(=O)NC2=O)c2ccc(CCCOCCOCCOc3cccc(N4C[C@H]5C[C@@H]4CN5/C=C/C(=O)c4ccccc4O)n3)cc21` (some centres unmarked) [I-33], the figure is over 1000 nM.

Regarding `Cn1c(=O)n(C2CCC(=O)NC2=O)c2ccc(CCCCc3cn(Cc4cccc(N5C[C@H]6C[C@@H]5CN6/C=C/C(=O)c5ccccc5O)n4)nn3)cc21` (some centres unmarked) [I-44], the maximal degradation (Dmax) was under 50% and the half-maximal degradation concentration (DC50) was over 1000 nM. In the same order, the values of `CC(C)(CCOCCCc1cccc2c1oc(=O)n2C1CCC(=O)NC1=O)NCc1ccc(N2CCN(c3cc(-c4ccccc4O)nnc3N)CC2)cc1` (centres unmarked) [I-129] are over 90% and over 1000 nM. `Cn1c(=O)n(C2CCC(=O)NC2=O)c2cccc(CCCCCCCN3CCCC(n4cc(-c5cc(-c6ccccc6O)nnc5N)cn4)C3)c21` (centres unmarked) [I-171]: the maximal degradation (Dmax) was in the range of 50 to 70% and the DC50 was over 1000 nM. In the same order, the values of `Cn1c(=O)n(C2CCC(=O)NC2=O)c2ccc(COCCCN3CCN(Cc4ccc(-c5cc(-c6ccccc6O)nnc5N)cc4)CC3)cc21` (centres unmarked) [I-141] are under 50% and 100 to 500 nM. Taken in the same sequence, the figures for `Cn1c(=O)n(C2CCC(=O)NC2=O)c2ccc(CCCCCCCOc3ccc(CN4CCN(c5cc(-c6ccccc6O)nnc5N)CC4)cc3)cc21` (centres unmarked) [I-87] were under 50% and over 1000 nM. As to `Cc1ncsc1-c1ccc(CNC(=O)[C@@H]2C[C@@H](O)CN2C(=O)[C@@H](NC(=O)CCCCCCCCCN2CCC(Cn3cc(-c4cc(-c5ccccc5O)nnc4N)cn3)CC2)C(C)(C)C)cc1` [I-214], the Dmax was over 90% and the 50% degradation concentration (DC50) was 501 to 1000 nM. As to `Cn1c(=O)n(C2CCC(=O)NC2=O)c2ccc(CN3CCCC(n4cc(-c5cc(-c6ccccc6O)nnc5N)cn4)C3)cc21` (centres unmarked) [I-177], the Dmax was in the range of 70 to 90% and the DC50 was under 100 nM. As for `Cn1c(=O)n(C2CCC(=O)NC2=O)c2ccc(C#CCOCCOCCN3CCN(Cc4ccc(-c5cc(-c6ccccc6O)nnc5N)cc4)CC3)cc21` (centres unmarked) [I-137], the maximal degradation (Dmax) was under 50% and the DC50 was over 1000 nM. Taken in the same sequence, the figures for `Cn1c(=O)n(C2CCC(=O)NC2=O)c2ccc(CCCOCCCN3CCN(Cc4ccc(-c5cc(-c6ccccc6O)nnc5N)cc4)CC3)cc21` (centres unmarked) [I-153] were 50 to 70% and under 100 nM.

Consider `CC(c1ccc(C(=O)NCCOCCOCCOCCCc2ccc3c(c2)n(C)c(=O)n3C2CCC(=O)NC2=O)cc1)n1cc(-c2cc(-c3ccccc3O)nnc2N)cn1` (centres unmarked) [I-12], for which the DC50 was over 1000 nM. For the molecule `Cn1c(=O)n(C2CCC(=O)NC2=O)c2cccc(CCCCCCCCN3CCN(c4cc(-c5ccccc5O)nnc4N)CC3)c21` (centres unmarked) [I-185], the greatest degradation seen (Dmax) was under 50% and the 50% degradation concentration (DC50) was over 1000 nM. In the case of `Cc1ncsc1-c1ccc(CNC(=O)[C@@H]2C[C@@H](O)CN2C(=O)[C@@H](NC(=O)CCCCCCCCCN(C)Cc2ccc(N3CCN(c4cc(-c5ccccc5O)nnc4N)CC3)cc2)C(C)(C)C)cc1` [I-213], the Dmax was in the range of 70 to 90% and the half-maximal degradation concentration (DC50) is 501 to 1000 nM. With `CC(c1ccc(C(=O)NCCOCCOCCCc2ccc3c(c2)n(C)c(=O)n3C2CCC(=O)NC2=O)cc1)n1cc(-c2cc(-c3ccccc3O)nnc2N)cn1` (centres unmarked) [I-16], the DC50 was over 1000 nM. With `Cn1c(=O)n(C2CCC(=O)NC2=O)c2cccc(CCCN3CCCC(n4cc(-c5cc(-c6ccccc6O)nnc5N)cn4)C3)c21` (centres unmarked) [I-169, 3-(4-(3-(3-(4-(3-amino-6-(2-hydroxyphenyl)pyridazin-4-yl)-1H-pyrazol-1-yl)piperidin-1-yl)propyl)-3-methyl-2-oxo-2,3-dihydro-1H-benzo[d]imidazol-1-yl)piperidine-2,6-dione], the maximal degradation (Dmax) is over 90% and the DC50 was under 100 nM. Turning to `Cc1ncsc1-c1ccc(CNC(=O)[C@@H]2C[C@@H](O)CN2C(=O)[C@@H](NC(=O)COCCOCCOCCOCCOCCOCCNC(=O)CCCCCCCCOc2ccc(N3C[C@H]4C[C@@H]3CN4/C=C/C(=O)c3ccccc3O)nc2)C(C)(C)C)cc1` [I-229], the DC50 was over 1000 nM.

For `Cn1c(=O)n(C2CCC(=O)NC2=O)c2cccc(CCCCCCOc3ccc(CN4CCN(c5cc(-c6ccccc6O)nnc5N)CC4)cc3)c21` (centres unmarked) [I-93], the Dmax was under 50% and the DC50 was over 1000 nM. Take `Cn1c(=O)n(C2CCC(=O)NC2=O)c2cccc(CNCCCCc3cn(Cc4cccc(N5C[C@H]6C[C@@H]5CN6/C=C/C(=O)c5ccccc5O)n4)nn3)c21` (some centres unmarked) [I-80]: the Dmax is under 50% and the DC50 was over 1000 nM. Regarding `CN(CCCOCCCc1cccc2c1n(C)c(=O)n2C1CCC(=O)NC1=O)Cc1ccc(N2CCN(c3cc(-c4ccccc4O)nnc3N)CC2)cc1` (centres unmarked) [I-112], the greatest degradation seen (Dmax) was under 50% and the DC50 was over 1000 nM. In the same order, the values of `COc1cc(C(=O)NCCCN2CCN(Cc3ccc(-c4cc(-c5ccccc5O)nnc4N)cc3)CC2)ccc1NC(=O)[C@@H]1N[C@@H](CC(C)(C)C)[C@](C#N)(c2ccc(Cl)cc2F)[C@H]1c1cccc(Cl)c1F` [I-232, (2R,3S,4R,5S)—N-(4-((3-(4-(4-(3-amino-6-(2-hydroxyphenyl)pyridazin-4-yl)benzyl)piperazin-1-yl)propyl)carbamoyl)-2-methoxyphenyl)-3-(3-chloro-2-fluorophenyl)-4-(4-chloro-2-fluorophenyl)-4-cyano-5-neopentylpyrrolidine-2-carboxamide] are under 50% and over 1000 nM. On to `Cn1c(=O)n(C2CCC(=O)NC2=O)c2ccc(CCCN3CCC(c4cnc(N5C6CCC5CN(c5cc(-c7ccccc7O)nnc5N)C6)nc4)CC3)cc21` (centres unmarked) [I-167, 3-[5-[3-[4-[2-[3-[3-amino-6-(2-hydroxyphenyl)pyridazin-4-yl]-3,8-diazabicyclo[3.2.1]octan-8-yl]pyrimidin-5-yl]-1-piperidyl]propyl]-3-methyl-2-oxo-benzimidazol-1-yl]piperidine-2,6-dione], for which the maximal degradation (Dmax) is over 90% and the half-maximal degradation concentration (DC50) was under 100 nM. `CC(c1ccc(CNCCOCCOCCOCCCc2ccc3c(c2)n(C)c(=O)n3C2CCC(=O)NC2=O)cc1)n1cc(-c2cc(-c3ccccc3O)nnc2N)cn1` (centres unmarked) [I-42, 3-(5-(1-(4-(1-(4-(3-amino-6-(2-hydroxyphenyl)pyridazin-4-yl)-1H-pyrazol-1-yl)ethyl)phenyl)-5,8,11-trioxa-2-azatetradecan-14-yl)-3-methyl-2-oxo-2,3-dihydro-1H-benzo[d]imidazol-1-yl)piperidine-2,6-dione]: the DC50 is over 1000 nM.
